According to US7745492B2, “Carboxamido opioid compounds” (Janssen Pharmaceutical, priority 2004, dated 2010):

Columns and labels:
[1] = system: spinal nerve ligated rats; test: Investigation of tolerance development to antiallodynic effect; type: in vivo, rat; conditions: dosing for five days, evaluated days one and five
Experimental: Investigation of Tolerance Development
The development of tolerance to the analgesic effect of mu opioid compounds is well known. The development of tolerance to the antiallodynic effect of the Compound 3 was investigated by administering the compound to spinal nerve ligated rats for five days. The antiallodynic effect of the compound was evaluated on days one and five.

[2] = molecular target: T1, recombinant human P450 1A2 (Homo sapiens, UniProt P05177); test: Recombinant human P450 isoform inhibition, 1A2; type: in vitro ADME
T1 sequence (P05177 1-516): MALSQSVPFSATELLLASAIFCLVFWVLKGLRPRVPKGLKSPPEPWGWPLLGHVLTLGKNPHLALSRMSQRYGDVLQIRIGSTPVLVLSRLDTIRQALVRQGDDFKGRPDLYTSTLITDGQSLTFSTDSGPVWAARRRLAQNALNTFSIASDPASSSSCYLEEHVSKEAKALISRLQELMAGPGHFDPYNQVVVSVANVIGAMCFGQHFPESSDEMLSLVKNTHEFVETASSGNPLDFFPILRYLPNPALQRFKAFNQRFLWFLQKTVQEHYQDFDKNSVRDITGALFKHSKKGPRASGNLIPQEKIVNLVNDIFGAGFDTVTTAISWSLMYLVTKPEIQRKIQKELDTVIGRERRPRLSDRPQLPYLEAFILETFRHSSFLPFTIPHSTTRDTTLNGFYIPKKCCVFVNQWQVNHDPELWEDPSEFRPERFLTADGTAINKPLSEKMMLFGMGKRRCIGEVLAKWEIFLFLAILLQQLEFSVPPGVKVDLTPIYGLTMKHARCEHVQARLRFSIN
Experimental: (§1) In a study using recombinant human P450 isoforms, the compound was only a weak inhibitor (IC50>10 μM) of all isoforms tested, 3A4, 2D6, 2C9, 2C19, and 1A2.

[3] = molecular target: recombinant human P450 2C9 (Homo sapiens, UniProt P11712); test: Recombinant human P450 isoform inhibition, 2C9; type: in vitro ADME
Experimental: as §1

[4] = system: male Sprague-Dawley rats; test: Rat CFA radiant heat model of inflammatory pain; type: in vivo; conditions: dosed orally 24 h after intraplantar CFA
Experimental: Rat CFA Radiant Heat Model of Inflammatory Pain
Intraplantar injection of Complete Freund's Adjuvant (CFA) in rodents results in a strong, long-lasting inflammatory reaction, characterized by a chronic and pronounced hyperalgesia to both thermal and mechanical stimuli. These effects peak between 24-72 h following injection, and can last for several days to a few weeks. To assess the ability of compounds to reverse thermal hyperalgesia, male Sprague-Dawley rats (200-350 g) were given an intraplantar injection of CFA (1:1 CFA:saline, 100 μL) into their left hindpaw. Following a 24-h incubation period, response latencies on the Radiant Heat Paw Stimulator (RH) were obtained and compared to baseline (pre-CFA) latencies. The RH device automatically registered lifting of the paw from the surface of the glass. […] Following the post CFA latency assessment, rats were dosed orally (2.5 mL/kg) with test compound or vehicle (hydroxypropylmethylcellulose, HPMC). Percent reversal of hyperalgesia was calculated for each animal as (Treatment Response−postCFA Response)/(preCFA Response−postCFA Response)×100. Therefore, a return to normal pre-CFA thresholds was defined as 100% efficacy, whereas no change from post-CFA thresholds was 0% efficacy. Average % reversal of hyperalgesia was then calculated for each treatment group (n=6-8 rats/group). […]

[5] = molecular target: T2, delta opioid receptor (Rattus norvegicus, UniProt P33533); test: Rat brain delta opioid receptor binding assay ([3H]DPDPE); conditions: rat forebrain membranes, 25° C.
T2 construct: from tissue; host or cells: rat forebrain membrane (particulate) preparation
Experimental: Rat Brain Mu and Delta Opioid Receptor Binding Assay
Male, Wistar rats (150-250 g, VAF, Charles River, Kingston, N.Y.) were killed by cervical dislocation and their brains removed and placed immediately in ice cold Tris HCl buffer (50 mM, pH 7.4). The forebrains were separated from the remainder of the brain by a coronal transection, beginning dorsally at the colliculi and passing ventrally through the midbrain-pontine junction. After dissection, the forebrains were homogenized in Tris buffer in a Teflon®-glass homogenizer. The homogenate was diluted to a concentration of 1 g of forebrain tissue per 100 mL Tris buffer and centrifuged at 39,000×G for 10 min. The pellet was resuspended in the same volume of Tris buffer with several brief pulses from a Polytron homogenizer. This particulate preparation was used for the opioid receptor binding assays. […] The tubes and filters were rinsed three times with 4 mL of 10 mM HEPES (pH 7.4) and the radioactivity associated with the filter circles determined using Formula 989 scintillation fluid (New England Nuclear, Boston, Mass.) in a scintillation counter.
The data were used to calculate a Ki value, using GraphPad Prism.

[6] = Metabolic stability in human liver microsomes; type: in vitro ADME
Experimental: The metabolic stability of Compound 3 was investigated using several approaches. The compound was incubated with liver microsomes from mouse, rat, dog and human and the percent of compound remaining after ten min quantified. The compound was metabolically robust in all species tested.
In a follow up study in human liver microsomes, the percent of compound remaining was determined at several incubation times (30, 60 and 90 min). The in vitro half life of the compound was determined to be >100 minutes.

Sequence of recombinant human P450 2C9 (P11712 whole entry, canonical isoform): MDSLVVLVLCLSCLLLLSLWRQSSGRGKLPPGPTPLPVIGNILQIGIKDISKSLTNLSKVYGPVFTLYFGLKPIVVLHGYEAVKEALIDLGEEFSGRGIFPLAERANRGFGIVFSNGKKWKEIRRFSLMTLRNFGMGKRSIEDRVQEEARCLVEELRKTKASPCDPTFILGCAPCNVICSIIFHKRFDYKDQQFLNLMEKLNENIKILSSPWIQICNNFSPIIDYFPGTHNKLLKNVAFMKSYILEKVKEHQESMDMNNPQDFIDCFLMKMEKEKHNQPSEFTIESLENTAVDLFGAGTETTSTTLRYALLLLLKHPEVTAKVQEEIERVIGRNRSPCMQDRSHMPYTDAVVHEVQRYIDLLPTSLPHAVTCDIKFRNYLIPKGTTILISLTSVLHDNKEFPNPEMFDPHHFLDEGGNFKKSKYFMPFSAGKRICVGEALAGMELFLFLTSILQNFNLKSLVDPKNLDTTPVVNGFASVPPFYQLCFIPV
T2 sequence (P33533 whole entry): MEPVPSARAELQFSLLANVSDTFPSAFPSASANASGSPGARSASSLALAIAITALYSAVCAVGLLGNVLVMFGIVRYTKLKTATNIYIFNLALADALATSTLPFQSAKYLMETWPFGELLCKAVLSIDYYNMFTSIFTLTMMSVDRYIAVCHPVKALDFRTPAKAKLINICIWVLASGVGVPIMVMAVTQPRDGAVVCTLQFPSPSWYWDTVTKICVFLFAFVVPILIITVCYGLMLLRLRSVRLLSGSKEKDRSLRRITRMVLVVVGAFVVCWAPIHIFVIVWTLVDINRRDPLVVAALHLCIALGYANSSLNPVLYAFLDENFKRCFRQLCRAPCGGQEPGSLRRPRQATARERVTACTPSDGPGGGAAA

With CN(C)C[C@H]1CCCC[C@]1(O)c1cccc(C(N)=O)c1 (single isomer, unassigned) [Cpd 3] the “Development of tolerance to the antiallodynic effect” value [1] was “did not diminish the antiallodynic effect”, the IC50 [2] was over 10 µM and the IC50 [3] was over 10 µM. The “Antihyperalgesic effect (reversal of thermal hyperalgesia)” value [4] was “antihyperalgesic”, the Ki [5] was 3.14 µM and the “% remaining after 10 min” value ([6]; 10 min incubation) was 101.4%. The “Metabolism in human liver microsomes (result in words)” value ([6]; 10 min incubation) was “no metabolism of the compound was observed” and the half-life ([6]; incubation times 30, 60 and 90 min, read-out: In vitro half life) was over 1.67 h.
